# Assay results: patent US9758527B2, “Cyclohexene derivative, preparation method therefor, and pharmaceutical composition for preventing or treating metabolic diseases, containing same as active ingredient” (HYUNDAI PHARM CO., LTD., priority 2014, dated 2017)
# Like-named read-outs stand apart in the source and are kept apart here.
# Legend:
# [1] = molecular target: T1, G protein-coupled receptor 119 (GPR-119) (Mesocricetus auratus, UniProt A0A1U8CD06); experiment: Evaluation of cAMP activity in HIT-T15 cells (HTRF cAMP dynamic kit); type: cell-based, hamster; settings: cAMP activation
# T1 construct: hamster-derived β-cells containing G protein-coupled receptor 119 (GPR-119), HIT-T15 cells; host or cells: HIT-T15 (hamster pancreatic β-cells)
# T1 sequence (A0A1U8CD06 1-334): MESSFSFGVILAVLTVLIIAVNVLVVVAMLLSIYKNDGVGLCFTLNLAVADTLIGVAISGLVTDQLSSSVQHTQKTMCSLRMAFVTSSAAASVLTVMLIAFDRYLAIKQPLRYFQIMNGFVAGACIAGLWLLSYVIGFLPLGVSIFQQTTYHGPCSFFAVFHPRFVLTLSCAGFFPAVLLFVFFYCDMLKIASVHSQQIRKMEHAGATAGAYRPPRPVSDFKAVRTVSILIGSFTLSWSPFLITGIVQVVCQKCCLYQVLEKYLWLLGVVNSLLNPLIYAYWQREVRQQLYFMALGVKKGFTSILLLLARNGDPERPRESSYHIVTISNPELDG
# Summary of the method: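 HIT-T15 cells, 60,000/well, treated next day with compound at six concentrations ([…]) for 1 h at 37° C. Lysate cAMP quantified by HTRF competitive immunoassay (D2-cAMP, cryptate anti-cAMP); activity taken as change in FRET signal relative to DMSO.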
# [2] = Weight change in diet-induced obesity (DIO) rat model, 4-week administration; type: in vivo, male Sprague Dawley (SD) rats; settings: DIO rats, oral, 10, 20, and 50 mg/kg, 4 weeks
# Experimental: To simultaneously evaluate both the weight-loss and hypoglycemic effects of the cyclohexene derivative according to the present invention, experiments were carried out, as follows.
# Specifically, male Sprague Dawley (SD) rats (approximately 4 weeks old) in a diet-induced obesity model were fed with a high-fat diet (Lab. Diet Co.) for approximately 10 weeks to induce high-fat diet-induced obesity (DIO). The rats undergoing the high-fat diet were randomly selected, and divided into groups (n=8) for respective administrations. The compounds of Comparative Examples 3 and 4 and Examples 48 and 119 were administered to the divided DIO rats each group for 4 weeks.
# The weights of the DIO rats were measured twice a week during a period of administration of 4 weeks to record a change in the weights. At the end of the 4-week period of administration, a hypoglycemic effect was evaluated using an oral glucose tolerance test (OGTT), as follows.
# FIG. 1 is a graph determining the changes in weights of rats after compounds of Example 48 and Comparative Examples 3 and 4 according to the present invention are administered to a diet-induced obesity (DIO) rat model for 4 weeks (In FIG. 1, the term “untreated group (Vehicle)” represents an untreated group in a high-fat DIO rat model; and the term “Lean” represents an untreated group in a normal SD rat model rather than a disease model).
# [3] = in vivo; settings: female, Ihara's cataract rats (ICR), rat, po
# Experimental: To evaluate acute toxicity of the cyclohexene derivative according to the present invention, experiments were carried out, as follows.
# Five 7-week-old female Ihara's cataract rats (ICRs) were supplied by Nara Biotech Co. Ltd., housed in a breeding farm, and acclimated to new environments while being fed with general solid feeds and water. When the rats were 8 weeks old, experiments were carried out. Environmental conditions were maintained constant: a set temperature of 23±3° C., a humidity of 55±15%, an illuminance of 150 to 300 Lux, a ventilation rate of 10 to 20 times/hour, and a lighting time of 12 hours (light-dark cycle: lighting at 8 a.m. and lights-out at 8 p.m.). As the feeds, solid feeds for laboratory animals (5L79 Lab Diet, Purina Mills, Richmond, Ind., USA), which had been sterilized by exposure to radiation, were provided by Orientbio Inc. so that rats were allowed to freely consume the solid feeds. As the water, running water was disinfected using a UV sterilizer and an ultra-filtration system, and then provided o that rats were allowed to freely drink the water in a water bottle. Analyses of contaminants in the water and feeds were carried out according to the ChemOn Inc.'s standard operating procedure (SOP). […]
# [4] = test system: blood glucose level; experiment: Oral glucose tolerance test (OGTT) in high-fat diet model; type: in vivo; settings: Mus musculus, 2 h; hypoglycemic level; 20 mg/kg oral, glucose 2 g/kg oral after 30 minutes; read-out: % AUC
# Experimental: To evaluate in vivo effective effects of the cyclohexene derivatives according to the present invention, experiments were carried out, as follows.
# Specifically, male C57BL/6J (C57 black 6) […] (8 to 10 weeks old) in a high-fat diet model were acclimated for at least 7 days, and only healthy rat populations were selected and subjected to an oral glucose tolerance test (OGTT). The rats were fasted for 12 to 15 hours, and then randomly divided into groups with five rats per group. Thereafter, each of the compounds of Examples 1, 14, 48, 69, 80, 118, 139, 147, 148, 169, 190, 199, 200, 204, 227, and Comparative Examples 1 and 2 according to the present invention was administered to the rats at a dose of 20 mg/kg. In this case, a vehicle (0.5%, carboxymethyl cellulose (CMC)) was administered as an untreated group, and the dose of the compound administered together with the vehicle was orally administered at 10 ml/kg. After 30 minutes of administration, glucose (2 g/kg) was orally administered at a dose of 10 ml/kg. A blood glucose level was measured using an Accu-Chek Active Strip (Rosche Diagnostic Co.). In this case, the glucose level in blood collected via caudal venipuncture was measured at time points of −30, 0, 20, 40, 60, and 120 minutes after glucose administration.
# In Table 3, the unit “% AUC (area under the curve)” represents a hypoglycemic level.
# [5] = test system: NCI-H716 cells; experiment: Promotion of glucagon-like peptide-1 (GLP-1) secretion (ELISA); type: cell-based, human; settings: NCI-H716 cells, 1, 10 and 30 μM-treated groups
# Experimental: To evaluate an effect of the cyclohexene derivative according to the present invention on promotion of glucagon-like peptide-1 (GLP-1) secretion, experiments were carried out, as follows.
# NCI-H716 cells that were human enterocytes were plated on 12 wells at 1×10^6 cells per well. After 48 hours, the cells were starved in serum-free media for 2 hours, and treated with a varying concentration of siptagliptin that was a dipeptidyl peptidase-IV (DPP-IV) inhibitor, and the compounds of Comparative Example 1 (1, 10, 30 μM), Comparative Example 5 (10 μM), Example 48 (1, 10, 30 μM), and Example 291 (1, 10, 30 μM). After an hour, supernatants are recovered to determine an amount of the secreted GLP-1 peptide. The GLP-1 measurement was performed using an enzyme-linked immunosorbent assay (ELISA; Millipore, EGLP-35K), and the amount of the secreted GLP-1 peptide was indicated by the unit “pM”.
# FIG. 3 is graph plotted for amounts of secreted GLP-1 when NCI-H716 cells that are human enterocytes are treated with the compounds of Comparative Examples 1 and 5 and Example 48 according to the present invention.
smiles,measurement,setting,value
"CC(C)c1noc(N2CCC(COc3ccc(C4=CCC(C(=O)N5CC[C@@H](O)C5)CC4)cc3)CC2)n1 (stereo partly drawn) [Example 48, ((R)-3-hydroxypyrrolidin-1-yl)(4-(4-((1-(3-isopropyl-1,2,4-oxadiazol-5-yl)piperidin-4-yl)methoxy)phenyl)cyclohex-3-enyl)methanone]",EC50,"[1]; 1 h at 37° C., six concentrations, read-out: EC50",35 nM
same,EC50,[1]; read-out: EC50 value,≤ 50 nM
same,weight-loss effect,[2],persistent weight loss was observed for 4 weeks
same,LD50,[3],≥ 2000 mg/kg
same,inhibition in vivo at 20 mg/kg,[4],21.2%
same,GLP-1 secretion compared with Comparative Example 1,[5],induced GLP-1 secretion to a higher level than that of Comparative Example 1
